From publication PMC5974779, “Prediction of Drug-Induced Hepatotoxicity Using Long-Term Stable Primary Hepatic 3D Spheroid Cultures in Chemically Defined Conditions” (Toxicological Sciences, 2018)
Like-named read-outs stand apart in the source and are kept apart here.

Assays:
[1] = cited from earlier work
[2] = system: primary human hepatocytes (PHH) 3D spheroids
[3] = ref DrugBank and Prescribers' Digital Reference database; cited from earlier work
[4] = system: clinical DILI in man; settings: cited from earlier work
[5] = system: PHH 2D sandwich cultures; settings: PHH 2D sandwich cultures, 100x Cmax; ref Xu 2008; cited from earlier work
[6] = therapeutic total cmax, ref PMID
[7] = clinical DILI classification in man (POS/NEG)
[8] = clinical DILI classification used in this study, Supplementary Table 2, ref Chen et al., 2011, Guo et al., 2005, O'Brien et al., 2006, Sakatis et al., 2012, Suzuki et al., 2010, Xu et al., 2008
[9] = clinical DILI classification, Supplementary Table 1, ref Chen et al., 2011, Guo et al., 2005, O'Brien et al., 2006, Sakatis et al., 2012, Suzuki et al., 2010, Xu et al., 2008
[10] = reported pattern of liver damage, Supplementary Table 2, ref literature
[11] = DILI classification score, ref Suzuki et al. (2010)
[12] = FDA drug labeling DILI concern, ref Chen et al., 2011
[13] = FDA drug labeling DILI score, ref Chen et al., 2011
[14] = clinical DILI classification, ref Xu et al. (2008)
[15] = clinical hepatotoxicity classification, ref O'Brien et al. (2003)

| Compound | Cmax [1, 6] | Chemically defined spheroids (this study) 20x [2] | Extent of hepatic metabolism [3] | DILI in vivo [4, 7] | Classified as [4, 8] | DILI in vivo [4, 9] | Type of DILI [4, 10] | Classified as ([4]; in vivo) | Clinical DILI class (panel heading of Figure 4) ([4]; in vivo) | DILI in vivo ([4]; in vivo) | Sakatis et al. (2012) ([4]; in vivo) | Type of DILI ([4]; in vivo) | Suzuki et al. (2010) [4, 11] | FDA (Severity) [4, 12] | FDA (0-8) [4, 13] | Xu et al. (2008) [4, 14] | other results |
| --- | --- | --- | --- | --- | --- | --- | --- | --- | --- | --- | --- | --- | --- | --- | --- | --- | --- |
| NNc1nnc(NN)c2ccccc12 [Dihydralazine] | 2630 nM | Positive | Moderate | POS | POS | POS | Hepatocellular injury or Cholestatic injury | – | – | – | – | – | – | – | – | – | – |
| CC(C)OC(=O)C(C)(C)Oc1ccc(C(=O)c2ccc(Cl)cc2)cc1 [Fenofibrate] | 12100 nM | Positive | Extensive | – | – | – | – | POS | High DILI concern | POS | Hepatotoxic | Hepatocellular injury, Cholestatic injury or Mixed hepatitis | – | – | – | – | FDA (0-8) ([4]; in vivo): 3; FDA (Severity) ([4]; in vivo): less DILI concern; O'Brien et al. (2003) ([4]; in vivo): Moderately; Suzuki et al. (2010) ([4]; in vivo): 1; Xu et al. (2008) ([4]; in vivo): Positive |
| OC(Cn1cncn1)(Cn1cncn1)c1ccc(F)cc1F [Fluconazole] | 8820 nM | Negative | Minimal | – | – | – | – | POS | Severe DILI | POS | Hepatotoxic | Hepatocellular injury | – | – | – | – | FDA (0-8) ([4]; in vivo): 8; FDA (Severity) ([4]; in vivo): most DILI concern; Guo et al. (2005) ([4]; in vivo): 3; Suzuki et al. (2010) ([4]; in vivo): 1; Xu et al. (2008) ([4]; in vivo): Positive |
| CC(C)NNC(=O)c1ccncc1 [Iproniazid] | 40 nM | Negative | Extensive | POS | POS | POS | Hepatocellular injury | – | – | – | Hepatotoxic | – | 3 | most DILI concern | Withdrawn | – | hepatotoxicity evaluation in CD-spheroids [2]: predicted to be DILI negative |
| O=C(c1ccccc1)c1ccc2n1CCC2C(=O)O (centres unmarked) [Ketorolac] | 2390 nM | Positive | Moderate | POS | POS | POS | – | – | – | – | – | – | 1 | less DILI concern | 3 | Positive | Guo et al. (2005) ([4]; DILI classification score, ref Guo et al. (2005)): 2; O'Brien et al. (2003) [4, 15]: Severely |
| COC(=O)C1=C(C)NC(C)=C(C(=O)OCC(C)C)C1c1ccccc1[N+](=O)[O-] (centres unmarked) [Nisoldipine] | 13 nM | Negative | Extensive | – | – | – | – | – | – | – | – | – | – | – | – | – | 2Dsw (Xu 2008) 100x [5]: Negative |
| CN1Cc2c(N)cccc2C(c2ccccc2)C1 (centres unmarked) [Nomifensine] | 5640 nM | Positive | Moderate | POS | POS | POS | Cholestatic injury | – | – | – | – | – | 3 | most DILI concern | Withdrawn | Positive | – |
| Fc1ccc([C@@H]2CCNC[C@H]2COc2ccc3c(c2)OCO3)cc1 [Paroxetine] | 50 nM | Negative | Extensive | NEG | NEG | NEG | Non-hepatotoxic | – | – | – | – | – | 2 | less DILI concern | 8 | Negative | O'Brien et al. (2003) [4, 15]: Moderately |
| CNC(=O)Oc1ccc2c(c1)[C@]1(C)CCN(C)[C@@H]1N2C [Physostigmine] | – | Negative | Extensive | NEG | NEG | NEG | Non-hepatotoxic | – | – | – | – | – | – | – | 0 | Negative | Cmax ([1]; human, in vivo): 18 nM; O'Brien et al. (2003) ([4]; in vivo): Non-toxic |
| CC(C)(C)c1ccc(C(O)CCCN2CCC(C(O)(c3ccccc3)c3ccccc3)CC2)cc1 (centres unmarked) [Terfenadine] | 4.5 nM | – | Extensive | – | – | – | – | NEG | DILI negative | NEG | – | Non-hepatotoxic | – | – | – | – | 2Dsw (Xu 2008) 100x [5]: Negative |
